Assay results from US20090176711A1, “INHIBITORS OF AMYLOID PRECURSOR PROTEIN PROCESSING” (priority 2008, published 2009).

Assays:
[1] = system: Substrate M (Sub M, SEVNLDAEFR; β-secretase cleavage site of APPsw); assay: Binding of biotin-labeled Substrate M to immobilized complementary (HC) peptides; conditions: substrate not specified
Method: Complementary peptides (0.2, 2, 20, and 200 μM) were dissolved in phosphate buffered saline (PBS) (pH 7.4) and fixed to microtiter wells for 5 hr at 37° C. The wells were blocked with blocking buffer (3% BSA/PBS) for 1 hr at 37° C. Either N-terminally biotinylated Substrate W or M (20 μM) in blocking buffer was added and incubated for overnight at 4° C. Streptavidin-horseradish peroxidase in blocking buffer was added to detect resulting bound substrates. The plate was incubated for 2 hr at room temperature (RT), followed by addition of 3,3′,5,5′-tetramethyl-benzidine (TMB) as substrate for horseradish peroxidase for color reaction.
(§1) Reacti-Bind™ maleic anhydride-activated polystyrene plate (Pierce, IL, USA) was coated with 50 μl of HC peptide (200 μM in distilled water) by chemical coupling for 3 h at room temperature (RT) and washed three times with phosphate buffered saline (PBS) containing 0.05% tween 20 (PBST). The plate was blocked with blocking buffer (0.5% gelatin in PBS) for 1 h at RT. After discarding blocking buffer, biotinylated BACE1 substrates (200 μM) in blocking buffer was applied on the plate and incubated for 2.5 h at RT. Each well was washed three times with PBST. The bound biotinylated BACE1 substrates were detected by incubation with streptavidin-horseradish peroxidase (Str-HRP, 125 mU/ml in blocking buffer) for 2 h at RT. Color reaction was carried out with 50 μl of 3,3′,5,5′-Tetramethylbenzidine Liquid Substrate (Sigma-Aldrich, MO, USA). After stopping the reaction by addition of an equal volume of 1 N HCl, absorbance at 450 nm was read in an automated ELISA reader (EL 312e, Bio-Tek Instruments, VT, USA). All assays were carried out in duplicate.

[2] = biological target: T1, cleavage of Sub-ST6Ga11 by rhBACE1 (Rattus norvegicus, UniProt P13721); assay: HPLC analysis of the cleavage of Sub-ST6Ga11 by rhBACE1; type: biochemical, human; conditions: up to 10 inhibitor/substrate ratio, Sub-ST6Ga11 50 μM, 500 nM enzyme
T1 construct: 19 amino acid region (DYEALTL/QAKEFQMPKSQE) that contains the β-cleavage site for investigation was chosen; purchased A&Pep Co., Inc. (non-labelled peptides); R&D Systems (rhBACE1)
Source text: One of the advantages of the APP inhibitor described in the present invention is that it is a peptide or a mimetic that bind to the β-secretase cleavage site of APP, thus not affecting other β-secretase substrates. To confirm the specificity of the inventive APP inhibitor, two different types of substrates were used, APP Sub M and ST6Ga11. Both substrates are cleaved by β-secretase under normal conditions and the effect of the inventive APP inhibitor on the substrate cleavage was monitored by HPLC (See the schematic diagram in FIG. 16.) To carry out these experiments, the concentration of β-secretase required for cleavage of both substrates was determined as shown in FIG. 17. For substantial cleavage of ST6Ga11 substrate, 420 nM of the enzyme was required. Therefore, 420 nM of β-secretase was used for the following experiment.
Various concentrations of HC peptide were preincubated with either Sub M (50 μM) or Sub-ST6Ga11 (50 μM, DYEALTLQAKEFQMPKSQE) peptide corresponding to the β-cleavage site of ST6Ga11 for 2 h at RT. The mixtures containing Sub M was treated with 50 nM of rhBACE1 and that containing Sub-ST6Ga11 was treated with 500 nM enzyme for 12 h at RT. Roughly 50% of each BACE1 substrate was cleaved in the absence of HC peptide. The cleavage products were separated on a C18 reversed-phase HPLC column as described above.

[3] = system: cleavage of Substrate M by β-secretase; assay: Inhibition of cleavage of Substrate M by β-secretase by complementary and deletion peptides (Examples 1, 5, 6; assay format not stated); type: biochemical; conditions: various concentrations, Substrate M (FIG. 8)
Method: So far we have focused on c-Sub M peptide. Serial deletions were made from N-terminus or C-terminus of c-Sub M (FIG. 5), and we investigated effect of the deletions on the cleavage of Substrate M. The optimum peptide/substrate ratio for inhibition on the cleavage of substrate was determined by observing the inhibition percentage at various peptide/substrate ratios (FIG. 4). Subsequently, the inhibitory activity of the deletion peptides were tested at 10 inhibitor/substrate ratio and the concentration of the Substrate M was 50 μM. Deletion of the first two amino acids from the N-terminus had little effect on the activity and deletion of five amino acids from the C-terminus of c-Sub M had little effect on the inhibitory activity (FIG. 6). Further deleted peptides were tested for inhibitory activity on the cleavage of Substrate M (FIG. 7).
The above-mentioned peptides that have inhibitory activity were tested at various concentrations for their inhibitory activities on their mutant substrate Substrate M (FIG. 8).

[4] = system: APP processing in HEK293-APP cells; assay: APP inhibitor activity on HEK293-APP cells (βCTF Western blot); type: cell-based, human; conditions: γ-secretase inhibitor and cholesterol added
Method: In the neuronal cells of the brain, APP is processed by α-secretase or β-secretase. To investigate the effects of the inhibitors on the cell, a cell based assay system was developed as described in FIG. 10. C-terminal fragment of APP remaining on the cell membrane was detected by Western blot. The resulting C-terminal fragments, αCTF or βCTF are further processed by γ-secretase. However, if the cells are treated with the γ-secretase inhibitor, this processing is blocked. As a result, αCTF or βCTF accumulate in the cell. If β-secretase inhibitor or APP inhibitor is added, this processing is blocked and βCTF disappears.
In addition, γ-secretase inhibitor and cholesterol were added to the cells to increase βCTF level. Commercially available peptide-based β-secretase inhibitor was included as control (Lane 6, FIG. 11). To detect the N-terminal fragment of β-amyloid which is a product of APP processing, 6E10 antibody was employed. […] Recently, it has been reported that the commercially available peptide-based inhibitor had to be linked to an oligoarginine transporter peptide to have inhibitory activity against cells. Therefore, mimetic approach is adopted to produce cell permeable analogs. (Chang et al. J. Neurochemistry 2004; 89:1409-1416).
After confirming the ability of the oligo-arginine coupled APP inhibitors to enter the cells, the inhibitors were applied to HEK293-APP cells overexpressing APP to test their inhibitory activities on APP processing. […] This inhibitor started to show significant inhibitory activity beginning from 0.1 μM (lower panel).

[5] = biological target: T2, Sub-ST6Ga11 (DYEALTLQAKEFQMPKSQE) (Rattus norvegicus, UniProt P13721); assay: Binding of bio-Sub-ST6Ga11 to immobilized HC peptide; conditions: HC peptide chemically coupled on microtiter plate
T2 construct: 19 amino acid region (DYEALTL/QAKEFQMPKSQE) that contains the β-cleavage site for investigation was chosen; purchased Peptron, Inc; host or cells: chemical synthesis
Method: as §1
It was investigated if HC peptide would show specificity for APP in terms of the inhibition of cleavage by BACE1. ST6Ga11 is also cleaved by BACE1. For this experiment, 19 amino acid region (DYEALTL/QAKEFQMPKSQE) that contains the β-cleavage site for investigation was chosen. The 19 amino acid peptide was designated as Sub-ST6Ga11. […]

- absorbance in binding test [1]: high absorbance
- inhibition of cleavage of Sub-ST6Ga11 by rhBACE1 [2]: about 10%
- concentration dependent inhibitory activity, activity group [3]: most active group
- binding of bio-Sub-ST6Ga11 [5]: also bound
Sequence: EFCIQIHF [c-Sub M ΔN1C1]
- inhibitory activity on APP processing (βCTF) [4]: none of the inhibitors tested showed inhibitory activity
